Data on two compounds can be found in ChEMBL document CHEMBL3832024, “DailyMed|setid=d9db2fd3-a668-4d37-9082-18f6ceb8c3cb | CLARITHROMYCIN - clarithromycin tablet, film coated, extended release|Dispensing Solutions, Inc”.

Values joined by “and” are separate entries in the source; they are usually repeats but may differ in a detail not shown here. Equal entries are not always repeated.

Common to all, as to format: ADME, organism-based
The subject of series [1] is Homo sapiens. Description: Evaluation of pharmacokinetic parameters for 14 OH-Clarithromycin following multiple oral doses of Clarithromycin tablets. Further details: dose 250 mg, dose 500 mg, dose 1000 mg, route oral. The conditions noted are these: in vivo, dosed compound id 21, dosed compound name CLARITHROMYCIN, tissue Plasma.
Series [2] can be described thus: (§1) Tmax for Clarithromycin evaluated after a single oral dose of 500 mg Clarithromycin tablets to fed and fasted subjects. The conditions noted are these: human, in vivo, dietary status Fed, dosed compound id 21, dosed compound name CLARITHROMYCIN, regimen Single dose, tissue Plasma.
The subject of series [3] is Homo sapiens. The description is as §1. The conditions noted are these: in vivo, po, dietary status Fasting, dosed compound id 21, dosed compound name CLARITHROMYCIN, regimen Single dose, tissue Plasma.
The nature of series [4]: (§2) Evaluation of pharmacokinetic parameters for Clarithromycin following multiple oral doses of Clarithromycin tablets. Further details: dose 250 mg, dose 500 mg, dose 1000 mg, route oral. The settings on record: human, in vivo, dosed compound id 21, dosed compound name CLARITHROMYCIN, route oral.
Series [5] relates to Homo sapiens. The description is as §2. Further details: dose 250 mg, dose 500 mg, dose 1000 mg, route oral. The conditions noted are these: in vivo, po, dosed compound id 21, dosed compound name CLARITHROMYCIN, regimen Every 12h; for Excretion: tissue Urine.

Usually Tmax stands for the time at which the peak concentration occurs. Consider `CO[C@]1(C)C[C@@H](C)C(=O)[C@H](C)[C@@H](O)[C@](C)(O)[C@@H](C(C)O)OC(=O)[C@H](C)[C@@H](O[C@H]2C[C@@](C)(OC)[C@@H](O)[C@H](C)O2)[C@H](C)[C@H]1O[C@@H]1O[C@H](C)C[C@H](N(C)C)[C@H]1O` (stereo not given in full), for which the t1/2 in series [1] (dose 250 mg, regimen Every 12h, route oral) fell in the range of 5 to 6 h; in series [1] (dose 500 mg, regimen Every 12h, route oral), 7 to 9 h. Moreover, in series [1] (dose 500 mg, gender male and female, regimen Every 24h, route oral), the time to peak (Tmax) was 6 h. Also, the Cmax ss in series [1] (gender male and female, regimen Every 24h) was 800 ng/mL; in series [1] (regimen Every 12h), 600 ng/mL and 1000 ng/mL.

By half-life is commonly meant the time in which the quantity being followed falls by half. High values mean slow decline, low ones rapid decline. For the compound `CC[C@H]1OC(=O)[C@H](C)[C@@H](O[C@H]2C[C@@](C)(OC)[C@@H](O)[C@H](C)O2)[C@H](C)[C@@H](O[C@@H]2O[C@H](C)C[C@H](N(C)C)[C@H]2O)[C@](C)(OC)C[C@@H](C)C(=O)[C@H](C)[C@@H](O)[C@]1(C)O` [CLARITHROMYCIN], the Tmax in series [2] was 2.5 h; in series [3], 2 h; in series [4] (dose 500 mg, gender male and female, regimen Every 24h, tissue Plasma), 5 to 6 h. In addition, in series [4] (po, at 250 mg, regimen Every 12h, tissue Urine, read-out: Excretion), the dose excreted was determined as 40%. Also, the half-life in series [4] (dose 500 mg, regimen Every 12h, tissue Plasma) was 5 to 7 h. For the same compound, the values for the Excretion in series [5] (at 250 mg) and in series [5] (at 500 mg) were 20% and 30%, respectively. In addition, the t1/2 in series [5] (dose 250 mg, tissue Plasma) is 3 to 4 h. Also, the Cmax ss was 2000 to 4000 ng/mL and 5000 to 10000 ng/mL in series [5] (gender male and female, tissue Plasma); 1000 to 2000 ng/mL and 3000 to 4000 ng/mL in series [5] (sampling time1 3 days, tissue Plasma).
